Assay results taken from patent US8758816B2, “Compositions comprising azelastine and methods of use thereof” (priority 2004, dated 2014).

Test system: patients with seasonal allergic rhinitis (SAR)
Experiment: MP 428 two-week randomized double-blind study: Total Nasal Symptom Score (TNSS), change from baseline
Format: in vivo, human
Set-up: key to Change from Baseline in AM TNSS, Mean / Change from Baseline in AM TNSS, LS Mean / Change from Baseline in AM TNSS, Median: TNSS sum of 4 symptoms each 0-3 (0=none, 3=severe); change from baseline
Settings: for AUC of Change from Baseline in TNSS (AM and PM Combined), Mean / AUC of Change from Baseline in TNSS (AM and PM Combined), Median / AUC of Change from Baseline in TNSS (AM and PM Combined), LS Mean: Day 1 to Day 14; for AUC of Change from Baseline in TNSS (AM and PM Combined), LS Mean: ANCOVA
Description: A two-week, randomized, double-blind study, which evaluated the effects of the co-administration of ASTELIN® (azelastine hydrochloride (HCl)) and FLONASE® (fluticasone propionate) compared to either product alone in patients with seasonal allergic rhinitis (SAR) was conducted during the 2006 Texas mountain cedar season. After a 5-day placebo lead-in period, 151 patients with moderate-to-severe allergic rhinitis symptoms were randomized to either: (1) (49 total patients) ASTELIN® (azelastine hydrochloride (HCl)) plus placebo saline nasal spray 2 sprays per nostril, 15 minutes apart, twice daily (AM & PM); (2) (50 total patients) FLONASE® (fluticasone propionate) plus placebo saline nasal spray, 2 sprays per nostril, 15 minutes apart, once daily (AM) and two sessions of placebo saline nasal spray, 2 sprays per nostril, 15 minutes apart (PM); or (3) (52 total patients) the co-administration of ASTELIN® (azelastine hydrochloride (HCl)) 2 sprays per nostril plus FLONASE® (fluticasone propionate) 2 sprays per nostril (AM), 15 minutes apart, and ASTELIN® (azelastine hydrochloride (HCl)) 2 sprays per nostril plus placebo saline nasal spray, 15 minutes apart, (PM) for a 2-week double-blind treatment period.
The primary efficacy variable was the change from baseline in the Total Nasal Symptom Score (TNSS), which comprised sneezing, itchy nose, runny nose, and nasal congestion (individual symptoms scores were assigned a value between 0 and 3, where 0=no symptoms and 3=severe symptoms). This study was not statistically designed to assess the differences between ASTELIN® and FLONASE®.

[1] = Day 12, Per-Protocol Population
[2] = Day 13, Intent-to-Treat Population
[3] = Day 13, Per-Protocol Population
[4] = Day 14, Intent-to-Treat Population
[5] = Day 14, Per-Protocol Population
[6] = Overall (Day 2 to Day 14), Intent-to-Treat Population
[7] = Overall (Day 2 to Day 14), Per-Protocol Population

CCC(=O)O[C@]1(C(=O)SCF)[C@H](C)C[C@H]2[C@@H]3C[C@H](F)C4=CC(=O)C=C[C@]4(C)[C@@]3(F)[C@@H](O)C[C@@]21C [Fluticasone, fluticasone propionate]
Percent Change from Baseline in PM TNSS, Median (Day 12, Intent-to-Treat Population): −31.82%
Change from Baseline in AM and PM Combined TNSS, LS Mean (Day 12, Intent-to-Treat Population, ANCOVA model): −6.12
Change from Baseline in AM and PM Combined TNSS, LS Mean [1]: −6.16
Change from Baseline in AM and PM Combined TNSS, Mean [1]: −6.20
Change from Baseline in AM and PM Combined TNSS, Median [1]: −5.17
Percent Change from Baseline in AM and PM Combined TNSS, LS Mean [1]: −31.45%
Percent Change from Baseline in AM and PM Combined TNSS, Mean [1]: −31.50%
Percent Change from Baseline in AM and PM Combined TNSS, Median [1]: −27.78%
Change from Baseline in AM TNSS, LS Mean [2]: −3.38
Change from Baseline in AM TNSS, Mean [2]: −3.32
Change from Baseline in AM TNSS, Median [2]: −3.00
Change from Baseline in AM and PM Combined TNSS, Mean [2]: −6.83
Change from Baseline in AM and PM Combined TNSS, Median [2]: −6.20
Change from Baseline in PM TNSS, LS Mean [2]: −3.57
Change from Baseline in PM TNSS, Mean [2]: −3.51
Change from Baseline in PM TNSS, Median [2]: −3.00
Percent Change from Baseline in AM TNSS, LS Mean [2]: −34.62%
Percent Change from Baseline in AM TNSS, Mean [2]: −34.03%
Percent Change from Baseline in AM TNSS, Median [2]: −28.36%
Percent Change from Baseline in AM and PM Combined TNSS, LS Mean [2]: −35.63%
Percent Change from Baseline in AM and PM Combined TNSS, Mean [2]: −34.97%
Percent Change from Baseline in AM and PM Combined TNSS, Median [2]: −30.43%
Percent Change from Baseline in PM TNSS, LS Mean [2]: −36.56%
Percent Change from Baseline in PM TNSS, Mean [2]: −35.75%
Percent Change from Baseline in PM TNSS, Median [2]: −33.33%
Change from Baseline in AM and PM Combined TNSS, LS Mean (Day 13, Intent-to-Treat Population, ANCOVA model): −6.95
Change from Baseline in AM and PM Combined TNSS, LS Mean [3]: −7.03
Change from Baseline in AM and PM Combined TNSS, Mean [3]: −7.01
Change from Baseline in AM and PM Combined TNSS, Median [3]: −6.50
Percent Change from Baseline in AM and PM Combined TNSS, LS Mean [3]: −35.99%
Percent Change from Baseline in AM and PM Combined TNSS, Mean [3]: −35.73%
Percent Change from Baseline in AM and PM Combined TNSS, Median [3]: −30.43%
Change from Baseline in AM TNSS, LS Mean [4]: −3.33
Change from Baseline in AM TNSS, Mean [4]: −3.28
Change from Baseline in AM TNSS, Median [4]: −3.00
Change from Baseline in AM and PM Combined TNSS, Mean [4]: −6.91
Change from Baseline in AM and PM Combined TNSS, Median [4]: −5.85
Change from Baseline in PM TNSS, LS Mean [4]: −3.70
Change from Baseline in PM TNSS, Mean [4]: −3.63
Change from Baseline in PM TNSS, Median [4]: −3.00
Percent Change from Baseline in AM TNSS, LS Mean [4]: −33.54%
Percent Change from Baseline in AM TNSS, Mean [4]: −33.12%
Percent Change from Baseline in AM TNSS, Median [4]: −31.03%
Percent Change from Baseline in AM and PM Combined TNSS, LS Mean [4]: −35.62%
Percent Change from Baseline in AM and PM Combined TNSS, Mean [4]: −35.00%
Percent Change from Baseline in AM and PM Combined TNSS, Median [4]: −28.71%
Percent Change from Baseline in PM TNSS, LS Mean [4]: −37.70%
Percent Change from Baseline in PM TNSS, Mean [4]: −36.79%
Percent Change from Baseline in PM TNSS, Median [4]: −33.33%
Change from Baseline in AM and PM Combined TNSS, LS Mean (Day 14, Intent-to-Treat Population, ANCOVA model): −7.02
Change from Baseline in AM and PM Combined TNSS, LS Mean [5]: −7.15
Change from Baseline in AM and PM Combined TNSS, Mean [5]: −7.14
Change from Baseline in AM and PM Combined TNSS, Median [5]: −6.00
Percent Change from Baseline in AM and PM Combined TNSS, LS Mean [5]: −36.26%
Percent Change from Baseline in AM and PM Combined TNSS, Mean [5]: −36.03%
Percent Change from Baseline in AM and PM Combined TNSS, Median [5]: −34.31%
AUC of Change from Baseline in TNSS (AM and PM Combined), Mean (Intent-to-Treat Population): −64.53
AUC of Change from Baseline in TNSS (AM and PM Combined), Median (Intent-to-Treat Population): −51.13
AUC of Change from Baseline in TNSS (AM and PM Combined), LS Mean (Intent-to-Treat Population): −65.00
Change from Baseline in AM TNSS, LS Mean [6]: −2.55
Change from Baseline in AM TNSS, Mean [6]: −2.57
Change from Baseline in AM TNSS, Median [6]: −2.14
Change from Baseline in AM and PM Combined TNSS, Mean [6]: −5.06
Change from Baseline in AM and PM Combined TNSS, Median [6]: −3.91
Change from Baseline in PM TNSS, LS Mean [6]: −2.71
Change from Baseline in PM TNSS, Mean [6]: −2.43
Change from Baseline in PM TNSS, Median [6]: −1.86
Percent Change from Baseline in AM TNSS, LS Mean [6]: −26.39%
Percent Change from Baseline in AM TNSS, Mean [6]: −26.49%
Percent Change from Baseline in AM TNSS, Median [6]: −23.89%
Percent Change from Baseline in AM and PM Combined TNSS, LS Mean [6]: −27.13%
Percent Change from Baseline in AM and PM Combined TNSS, Mean [6]: −26.12%
Percent Change from Baseline in AM and PM Combined TNSS, Median [6]: −21.93%
Percent Change from Baseline in PM TNSS, LS Mean [6]: −27.75%
Percent Change from Baseline in PM TNSS, Mean [6]: −24.98%
Percent Change from Baseline in PM TNSS, Median [6]: −20.34%
Change from Baseline in AM and PM Combined TNSS, LS Mean (Overall (Day 2 to Day 14), Intent-to-Treat Population, ANCOVA model): −5.24
Change from Baseline in AM and PM Combined TNSS, LS Mean [7]: −5.24
Change from Baseline in AM and PM Combined TNSS, Mean [7]: −5.14
Change from Baseline in AM and PM Combined TNSS, Median [7]: −3.91
Percent Change from Baseline in AM and PM Combined TNSS, LS Mean [7]: −27.12%
Percent Change from Baseline in AM and PM Combined TNSS, Mean [7]: −26.46%
Percent Change from Baseline in AM and PM Combined TNSS, Median [7]: −21.93%
AUC of Change from Baseline in TNSS (AM and PM Combined), Mean (Per-Protocol Population): −65.66
AUC of Change from Baseline in TNSS (AM and PM Combined), Median (Per-Protocol Population): −51.13
AUC of Change from Baseline in TNSS (AM and PM Combined), LS Mean (Per-Protocol Population): −65.38
